Experiments:
[1] = tested on: Streptococcus faecalis 05045; experiment: Agar disc diffusion, zone of inhibition vs. Streptococcus faecalis 05045; format: cell-based; conditions: Enterococcus faecalis, 12.7 mm disc, 37°, overnight, read-out: Zone diameter
Description: Paper disks (12.7 mm in diameter) impregnated with an aqueous solution containing varying amounts of 2'-chloropentostatin were placed on a layer of agar containing AM-10 assay medium (Table 4) and inoculated with Streptococcus faecalis 05045. After incubation at 37° overnight the following zones of inhibition were observed: […]

adenosine deaminase [2] = target: T1, adenosine deaminase (Homo sapiens, UniProt P00813); experiment: biochemical
T1 sequence (P00813 1-363): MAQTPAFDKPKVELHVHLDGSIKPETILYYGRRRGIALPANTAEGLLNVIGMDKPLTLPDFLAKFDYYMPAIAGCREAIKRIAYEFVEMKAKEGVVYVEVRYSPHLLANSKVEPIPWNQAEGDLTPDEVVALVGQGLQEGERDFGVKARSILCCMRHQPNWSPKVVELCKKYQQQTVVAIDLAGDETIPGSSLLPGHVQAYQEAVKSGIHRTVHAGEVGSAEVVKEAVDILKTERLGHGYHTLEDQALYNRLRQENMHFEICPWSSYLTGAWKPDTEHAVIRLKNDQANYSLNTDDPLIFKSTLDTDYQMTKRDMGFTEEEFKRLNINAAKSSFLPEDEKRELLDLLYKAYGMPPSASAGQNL
Description: The potency of 2'-chloropentostatin as an adenosine deaminase inhibitor was determined using the following methods. The velocity (in moles/minute/ml) of the reaction of adenosine deaminase with adenosine was measured for several concentrations of the enzyme in the presence of various concentrations of the inhibitor, 2'-chloropentostatin. The data has been plotted in FIG. 1 in the form of an Ackerman-Potter plot (see W. W. Ackerman and V. R. Potter, Proc. Soc. Exp. Biol. Med., 72:1 (1949)).
The values of Vo /Vi =2 for each curve yield the I50 for the enzyme inhibitor at each substrate concentration. These I50 values have been plotted versus substrate concentration in FIG. 3.

[3] = tested on: DNA viruses, especially herpes and vaccinia viruses; conditions: U.S. Pat. No. 3,616,208; mammals; cited from earlier work
adenosine deaminase [4] = target: T1, adenosine deaminase; conditions: cited from earlier work
adenosine deaminase [5] = target: T1, adenosine deaminase; conditions: prior patents, in words; cited from earlier work

OC[C@H]1O[C@@H](n2cnc3c2N=CNC[C@H]3O)[C@H](Cl)[C@@H]1O [2'-chloropentostatin, (R)-3-(2-chloro-2deoxy-beta-D-ribofuranosyl)-3,6,7,8-tetrahydroimidazo[4,5-d][1,3]diazepin-8-ol]
zone of inhibition at 0.2 µg/mL ([1]; 0.2 μg/ml): 40 mm
zone of inhibition at 2 µg/mL ([1]; 2 μg/ml): 47 mm
zone of inhibition at 20 µg/mL ([1]; 20 μg/ml): 55 mm
zone of inhibition at 200 µg/mL ([1]; 200 μg/ml): 61 mm
zone of inhibition at 2000 µg/mL ([1]; 2000 μg/ml): 64 mm
Ki (adenosine deaminase [2]): 100 pM
type of inhibition of adenosine deaminase (adenosine deaminase [2]; Ackerman-Potter plot, FIG. 1): "tight-binding" or "pseudo-irreversible" inhibitor

Nc1ncnc2c1ncn2[C@@H]1O[C@H](CO)[C@@H](O)[C@@H]1O [9-(beta-D-arabinofuranosyl)adenine]
treatment of DNA viruses [3]: useful agent for the treatment of DNA viruses
biological efficacy, limitation by deamination/deactivation in vivo (adenosine deaminase [4]): greatly diminished by the rapid deamination

OC[C@H]1O[C@@H](n2cnc3c2N=CNC[C@H]3O)[C@H](O)[C@@H]1O [coformycin, (R) -3-(beta-D-ribofuranosyl)-3,6,7,8-tetrahydroimidazo[4,5-d][1,3]diazepin-8-ol]
inhibition of adenosine deaminase (adenosine deaminase [5]): potent inhibitors of adenosine deaminase

Reference: patent US4713372A, “2-chloropentostatin compound having adenosine diaminase inhibitory activity” (Warner-Lambert Company, priority 1985, dated 1987)
